Source: US12448369B2 (Edgewise Therapeutics, Inc., priority 2023, dated 2025)

How the values were obtained:
[1] = test system: Rabbit Psoas myofibrils (skeletal myosin ATPase); experiment: Myofibril ATPase assay, rabbit psoas (skeletal) myofibrils; type: biochemical; conditions: rabbit psoas myofibrils
Procedure, shortened: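 Rabbit psoas skeletal myofibrils in PIPES/CaCl2/EGTA pCa buffer, pH 7.0. ATPase rate followed by PK-LDH-coupled NADH loss at 340 nm, read every 1.5–2 min for 75 min. Slopes normalized to vehicle (100%) and fitted to a 4-parameter logistic; values are Y75 (25% inhibition) or Y125 (25% activation) concentrations.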

[2] = test system: Porcine atria myofibrils (atrial myosin ATPase); experiment: Myofibril ATPase assay, porcine atria myofibrils; type: biochemical; conditions: porcine atria myofibrils
Procedure, shortened: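 Coupled PK-LDH reaction links ADP from myosin ATPase to NADH loss, read at 340 nm every 1.5-2 min for 75 min. Slopes (mAU/min) normalized to vehicle-only wells (100%) and fit to a 4-parameter logistic; Y75 is the concentration cutting activity by 25%, Y125 is reported for activators.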

[3] = target: T1, Porcine ventricle myofibrils (ventricular myosin ATPase) (Sus scrofa, UniProt P79293); experiment: Myofibril ATPase assay, porcine ventricle myofibrils; type: biochemical, porcine (Yucatan minipigs); conditions: porcine ventricle myofibrils
T1 construct: Myofibrils from porcine cardiac muscle was isolated from the left ventricle of Yucatan minipigs; tissue Exemplar Genetics; host or cells: left ventricle of Yucatan minipigs, myofibrils prepared in house
Procedure, shortened: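 Left-ventricle myofibrils from Yucatan minipigs were tested with a PK/LDH-coupled system, following NADH loss at 340 nm every 1.5-2 min for 75 min. Slopes were normalized to vehicle wells and fit to a 4-parameter logistic model; values are Y75 (25% ATPase reduction) or Y125 concentrations.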

[4] = Y75 value (75% activity relative to no compound)

T1 sequence (P79293 whole entry): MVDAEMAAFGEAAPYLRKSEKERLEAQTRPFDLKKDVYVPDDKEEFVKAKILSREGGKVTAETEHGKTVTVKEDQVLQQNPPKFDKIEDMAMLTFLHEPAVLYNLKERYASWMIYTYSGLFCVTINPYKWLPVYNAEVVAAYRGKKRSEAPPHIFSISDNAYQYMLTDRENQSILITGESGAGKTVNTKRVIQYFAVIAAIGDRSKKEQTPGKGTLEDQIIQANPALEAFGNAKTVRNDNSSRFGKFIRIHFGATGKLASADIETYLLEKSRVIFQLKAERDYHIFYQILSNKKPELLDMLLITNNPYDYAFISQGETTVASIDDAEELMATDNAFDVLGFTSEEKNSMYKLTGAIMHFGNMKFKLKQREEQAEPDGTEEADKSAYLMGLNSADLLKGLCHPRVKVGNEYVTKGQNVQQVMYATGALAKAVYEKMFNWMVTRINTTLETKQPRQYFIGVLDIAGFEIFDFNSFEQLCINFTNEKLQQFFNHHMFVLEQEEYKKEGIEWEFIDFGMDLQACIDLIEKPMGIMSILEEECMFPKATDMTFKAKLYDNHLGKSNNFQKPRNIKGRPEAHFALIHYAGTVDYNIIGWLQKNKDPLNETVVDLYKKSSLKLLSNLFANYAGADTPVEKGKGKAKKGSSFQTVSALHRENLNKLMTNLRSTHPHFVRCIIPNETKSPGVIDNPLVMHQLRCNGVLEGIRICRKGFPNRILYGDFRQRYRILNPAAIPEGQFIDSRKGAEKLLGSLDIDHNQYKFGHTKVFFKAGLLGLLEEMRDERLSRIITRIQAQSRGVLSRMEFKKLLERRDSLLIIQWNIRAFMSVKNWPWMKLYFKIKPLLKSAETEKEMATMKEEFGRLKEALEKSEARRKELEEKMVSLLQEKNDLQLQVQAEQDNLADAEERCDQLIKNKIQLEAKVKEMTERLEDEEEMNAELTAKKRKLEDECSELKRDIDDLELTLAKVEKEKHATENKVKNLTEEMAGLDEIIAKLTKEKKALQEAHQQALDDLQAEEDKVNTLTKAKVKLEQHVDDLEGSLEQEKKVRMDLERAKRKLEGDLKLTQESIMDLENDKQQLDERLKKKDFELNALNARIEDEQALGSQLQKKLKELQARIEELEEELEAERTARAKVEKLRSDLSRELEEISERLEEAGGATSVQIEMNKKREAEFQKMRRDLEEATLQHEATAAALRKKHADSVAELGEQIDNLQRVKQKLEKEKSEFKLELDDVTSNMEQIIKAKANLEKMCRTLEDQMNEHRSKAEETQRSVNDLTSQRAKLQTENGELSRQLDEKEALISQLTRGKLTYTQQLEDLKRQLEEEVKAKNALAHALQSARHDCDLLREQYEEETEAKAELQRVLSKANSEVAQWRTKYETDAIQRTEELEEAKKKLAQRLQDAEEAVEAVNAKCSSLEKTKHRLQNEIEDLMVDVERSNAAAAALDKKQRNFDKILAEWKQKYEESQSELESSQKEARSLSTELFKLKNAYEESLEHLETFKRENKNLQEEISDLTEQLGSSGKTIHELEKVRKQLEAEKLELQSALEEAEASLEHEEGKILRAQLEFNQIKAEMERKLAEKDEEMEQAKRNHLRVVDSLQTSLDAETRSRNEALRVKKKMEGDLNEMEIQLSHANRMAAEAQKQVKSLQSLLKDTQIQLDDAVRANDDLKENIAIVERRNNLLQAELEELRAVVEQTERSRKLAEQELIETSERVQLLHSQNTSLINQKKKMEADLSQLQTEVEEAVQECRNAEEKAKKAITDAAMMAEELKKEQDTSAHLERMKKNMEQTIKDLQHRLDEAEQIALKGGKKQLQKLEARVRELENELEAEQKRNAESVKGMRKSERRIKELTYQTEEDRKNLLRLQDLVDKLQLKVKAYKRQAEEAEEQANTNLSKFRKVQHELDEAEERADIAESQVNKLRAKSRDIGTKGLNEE

Row | SMILES | Skeletal EC25 ([1]; Y75 value (no ‡ mark)) [µM] | Atrial EC25 ([2]; Y75 value (no ‡ mark)) [µM] | Ventricular EC25 ([3]; Y75 value (no ‡ mark)) [µM] | Skeletal EC25 ([1]; Y75 value) [µM] | Atrial EC25 [2, 4] [µM] | Ventricular EC25 ([3]; Y75 value) [µM]
1 | C[C@H](NC(=O)Cc1c(C2CC2)c2cc(F)ccc2[nH]c1=O)c1ccc(C#N)cc1F [compound 74] | 0.01 | 0.69 | 0.46 | – | – | –
2 | Cc1nccc2[nH]c(=O)c(CC(=O)N[C@@H](c3ccc(F)cc3F)C(C)(C)O)c(C)c12 (single isomer, unassigned) [compound 271] | – | – | – | 100.00 | 100.00 | 100.00
3 | Cc1ccncc1[C@@H](C)NC(=O)Cc1c(C)c2c(C)c(F)ccc2[nH]c1=O [compound 1046] | 0.04 | 0.06 | 0.14 | – | – | –
4 | Cc1c(CC(=O)N[C@@H](C)c2ncc(C#N)cc2F)c(=O)[nH]c2cccc(C#N)c12 [compound 1081] | 0.03 | 0.12 | 0.28 | – | – | –
5 | Cc1nccc2[nH]c(=O)c(CC(=O)N[C@@H](C)c3cnc(C#N)cn3)c(C)c12 [compound 487] | – | – | – | 3.42 | 100.00 | 3.42
6 | Cc1nccc2[nH]c(=O)c(CC(=O)N[C@@H]3CNc4cc(F)cc(F)c43)c(C)c12 (single isomer, unassigned) [compound 181] | – | – | – | 0.09 | 0.31 | 2.51
7 | Cc1c(C(F)(F)C(=O)N[C@@H](C)c2ncc(C#N)cc2F)c(=O)[nH]c2cccc(C#N)c12 (single isomer, unassigned) [compound 2502] | 0.03 | 0.09 | 0.20 | – | – | –
8 | Cc1ccccc1[C@@H](CO)NC(=O)Cc1c(C)c2c(C)nccc2[nH]c1=O (single isomer, unassigned) [compound 337] | – | – | – | 100.00 | 100.00 | 100.00
9 | N#Cc1ccc([C@@H](CO)NC(=O)Cc2c(C3CC3)c3cc(F)ccc3[nH]c2=O)c(F)c1 [compound 75] | 15.21 | 59.37 | 0.61 | – | – | –
10 | Cc1c(CC(=O)N[C@@H](C)c2ccc(F)cc2F)c(=O)[nH]c2ccc(O)nc12 [compound 299] | – | – | – | 17.50 | 10.21 | 100.00
11 | C[C@@H](NC(=O)Cc1cc2cc(F)c(F)cc2[nH]c1=O)c1cnc(C#N)nc1 [compound 1074] | 100.00 | 100.00 | 100.00 | – | – | –
12 | Cc1c(CC(=O)N[C@@H](C)c2ccc(C#N)nn2)c(=O)[nH]c2ccc(F)cc12 [compound 1120] | 2.90 | 2.58 | 10.61 | – | – | –
13 | Cc1nccc2[nH]c(=O)c(CC(=O)N[C@H](C)c3ccc(C#N)cc3F)c(C#N)c12 [compound 153] | – | – | – | 3.09 | 19.40 | 100.00
14 | Cc1nccc2[nH]c(=O)c(CC(=O)N[C@H](C)c3ccccc3O)c(C)c12 (single isomer, unassigned) [compound 320] | – | – | – | 34.09 | 100.00 | 100.00
15 | O=C(Cc1cc2c(F)c(F)ccc2[nH]c1=O)N1CC2CC1c1ccccc12 (stereo not drawn) [compound 4504] | 0.30 | 0.92 | 0.47 | – | – | –
16 | Cc1c(CC(=O)N[C@@H](C)c2ccc(F)cc2F)c(=O)[nH]c2ccc(C#N)nc12 [compound 281] | – | – | – | 0.34 | 0.27 | 5.52
17 | C[C@H](NC(=O)Cc1cc2cc(O)ccc2[nH]c1=O)c1ccc(F)cc1F [compound 125] | 25.67 | 64.80 | 20.89 | – | – | –
18 | Cc1c(CC(=O)N[C@H](C)c2cnc(C#N)nc2)c(=O)[nH]c2cc(F)c(F)cc12 (single isomer, unassigned) [compound 2074] | 4.03 | 9.01 | 10.13 | – | – | –
19 | Cc1c(CC(=O)N[C@H](C)c2ccc(C#N)cn2)c(=O)[nH]c2cc(F)c(F)cc12 [compound 1112] | 3.86 | 5.01 | 2.09 | – | – | –

Row | SMILES | Skeletal EC25 ([1]; Y75 value (no ‡ mark)) [µM] | Atrial EC25 ([2]; Y75 value (no ‡ mark)) [µM] | Ventricular EC25 ([3]; Y75 value (no ‡ mark)) [µM] | Skeletal EC25 ([1]; Y75 value) [µM] | Atrial EC25 [2, 4] [µM] | Ventricular EC25 ([3]; Y75 value) [µM]
20 | Cc1nccc2[nH]c(=O)c(C(F)(F)C(=O)N[C@@H](C)c3ccc(C#N)cc3F)c(C)c12 (single isomer, unassigned) [compound 3508] | – | – | – | 0.07 | 0.22 | 0.29
21 | Cc1c(CC(=O)N[C@H](C)c2cnc(C#N)cn2)c(=O)[nH]c2ccc(F)cc12 [compound 1108] | 0.37 | 6.47 | 1.44 | – | – | –
22 | Cc1nccc2[nH]c(=O)c(CC(=O)N[C@@H](CO)c3cccnc3)c(C)c12 (single isomer, unassigned) [compound 312] | – | – | – | 100.00 | 100.00 | 100.00
23 | Cc1c(CC(=O)N[C@H](C)c2ccc(F)cn2)c(=O)[nH]c2cccc(F)c12 [compound 43] | 14.83 | 100.00 | 100.00 | – | – | –
24 | Cc1nccc2[nH]c(=O)c([C@@H](C)C(=O)N[C@H](C)c3ccc(C#N)cc3F)c(C)c12 (single isomer, unassigned) [compound 183] | – | – | – | 0.75 | 0.33 | 6.37
25 | Cc1nccc2[nH]c(=O)c(CC(=O)N[C@@H](C)c3cccc(O)c3)c(C)c12 (single isomer, unassigned) [compound 331] | – | – | – | 100.00 | 100.00 | 100.00
26 | Cc1c(F)ccc2[nH]c(=O)c(C(F)(F)C(=O)N[C@@H](C)c3ncc(C#N)cc3F)c(C#N)c12 (single isomer, unassigned) [compound 2520] | 0.07 | 0.14 | 0.21 | – | – | –
27 | Cc1c([C@@H](C)C(=O)N[C@@H](C)c2ccc(F)cc2F)c(=O)[nH]c2ccnc(Cl)c12 (single isomer, unassigned) [compound 365] | – | – | – | 0.03 | 0.18 | 0.92
28 | Cc1c(CC(=O)N[C@@H](CO)c2ccc(C#N)cc2F)c(=O)[nH]c2ccnc(OC3CC3)c12 [compound 204] | – | – | – | 0.07 | 0.47 | 7.78
29 | Cc1c(C2(C(=O)N[C@H]3CCc4cc(C#N)cnc43)CC2)c(=O)[nH]c2ccc(F)cc12 (single isomer, unassigned) [compound 2504] | 100.00 | 100.00 | 100.00 | – | – | –
30 | C[C@@H](NC(=O)Cc1c(C2CC2)c2cnccc2[nH]c1=O)c1ncc(C#N)cc1F [compound 142] | – | – | – | 100.00 | 100.00 | 100.00
31 | Cc1c(CC(=O)N[C@H](C)c2ccc(C#N)cn2)c(=O)[nH]c2ccc(OC(F)(F)F)nc12 [compound 449] | – | – | – | 100.00 | 100.00 | 100.00
32 | Cc1nccc2[nH]c(=O)c(CC(=O)N[C@H](CO)c3cccnc3)c(C)c12 (single isomer, unassigned) [compound 311] | – | – | – | 100.00 | 100.00 | 100.00
33 | Cc1cc(C#N)nnc1[C@H](C)NC(=O)Cc1c(C)c2cc(F)ccc2[nH]c1=O [compound 1059] | 0.39 | 0.13 | 0.16 | – | – | –
34 | Cc1c([C@H](C)C(=O)N[C@@H](C)c2ccc(F)cc2F)c(=O)[nH]c2ccnc(Cl)c12 (single isomer, unassigned) [compound 366] | – | – | – | 0.04 | 0.14 | 1.48
35 | CCNc1nccc2[nH]c(=O)c(CC(=O)N[C@@H](C)c3ccc(F)cc3F)c(C)c12 [compound 351] | – | – | – | 0.06 | 0.14 | 0.97
36 | Cc1c([C@H](C)C(=O)N[C@@H](C)c2ccc(F)cc2F)c(=O)[nH]c2ccc(C(F)(F)F)nc12 (single isomer, unassigned) [compound 369] | – | – | – | 15.36 | 0.29 | 60.83
37 | C[C@H](NC(=O)Cc1cc2c(F)cc(F)cc2[nH]c1=O)c1ncc(C#N)cc1F [compound 1138] | 0.04 | 1.64 | 1.22 | – | – | –
38 | C[C@H](NC(=O)[C@@H](C)c1c(C(F)(F)F)c2c(F)cccc2[nH]c1=O)c1ccc(F)cc1F (single isomer, unassigned) [compound 97] | 0.23 | 0.19 | 5.34 | – | – | –
